The source of these data is patent US12440571B2, “Immune agonists” (SHENZHEN UNIVERSITY, priority 2020, dated 2025).

Structures are written as SMILES.

Common to all, as to assay type: cell-based
Assay [1] concerns human leukemia K562 cells. The assay is described as follows: CCK8 growth inhibition, K562. Conditions: CCK8 method, read-out: IC50 of inhibitory activity on tumor cell growth, K562. Background: Tetrazolium assays rely on reduction of a dye to a coloured formazan, in cell work by metabolically active cells.
In assay [2] the test system is Murine breast cancer 4T1 cells. The assay can be described thus: CCK8 growth inhibition, 4T1. The following applies: Mus musculus, CCK8 method, 24 hrs (or 36, 72 hrs), read-out: IC50 of inhibitory activity on tumor cell growth, 4T1. Here is the method:
Murine breast cancer 4T1 cells (Kailian Biotech, KG338) in a logarithmic growth phase were selected and washed with PBS, digested with 0.25% trypsin (including EDTA), stopped digestion with a DMEM complete medium, then centrifuged, and resuspended to form a suspension of 4T1 single cells. Cells were counted using a hemocytometer and a cell concentration was calculated. A DMEM complete medium was used to adjust the cell suspension to a target concentration, and thereafter, the cells were plated on a 96-well cell culture plate according to 4×10^3/100 μL per well. After adherering to the wall, the 4T1 cells were stimulated according to the designed concentration gradients of the series of GY compounds or drugs, with each concentration being provided with 3 replicate holes. The 96-well cell culture plate with 4T1 cells seeded and dosing was placed in the cell incubator, and incubated at 37° C., 5% carbon dioxide for 24 hrs (or 36, 72 hrs). After the incubation time was over, 10 μL of CCK8 reagent was added to each well and incubated for 1-2 hrs at 37° C. A full-wavelength microplate reader was adopted to test an OD value at 450 nm wavelength.
CCK8 calculation formula is as follows: • Cell survival rate (100%)=[…]/(Ac−Ab)×100% • As: Absorbance of wells containing cells, CCK8 solution, and drug solution • Ac: Absorbance of wells containing cells and CCK8 solution, and no drug solution • Ab: Absorbance of wells containing CCK8 solution, no cells, and no drug solution
Cell growth inhibition rate (%)=1−((OD value of experimental group−OD value of blank group)/(OD value of control group−OD value of blank group)×100%).

In assay [3] the test system is human lymphoma Daudi B cells. The assay can be described thus: CCK8 growth inhibition, Daudi B. The following applies: Homo sapiens, Daudi, CCK8 method; read-out: IC50 of inhibitory activity on tumor cell growth, Daudi B.
A further assay has as its target T1, TLR7 (Homo sapiens, UniProt Q9NYK1).
T1 construct: host or cells: HEK-Blue hTLR7 cells (HEK293-derived SEAP reporter line)
T1 sequence (Q9NYK1 27-1049): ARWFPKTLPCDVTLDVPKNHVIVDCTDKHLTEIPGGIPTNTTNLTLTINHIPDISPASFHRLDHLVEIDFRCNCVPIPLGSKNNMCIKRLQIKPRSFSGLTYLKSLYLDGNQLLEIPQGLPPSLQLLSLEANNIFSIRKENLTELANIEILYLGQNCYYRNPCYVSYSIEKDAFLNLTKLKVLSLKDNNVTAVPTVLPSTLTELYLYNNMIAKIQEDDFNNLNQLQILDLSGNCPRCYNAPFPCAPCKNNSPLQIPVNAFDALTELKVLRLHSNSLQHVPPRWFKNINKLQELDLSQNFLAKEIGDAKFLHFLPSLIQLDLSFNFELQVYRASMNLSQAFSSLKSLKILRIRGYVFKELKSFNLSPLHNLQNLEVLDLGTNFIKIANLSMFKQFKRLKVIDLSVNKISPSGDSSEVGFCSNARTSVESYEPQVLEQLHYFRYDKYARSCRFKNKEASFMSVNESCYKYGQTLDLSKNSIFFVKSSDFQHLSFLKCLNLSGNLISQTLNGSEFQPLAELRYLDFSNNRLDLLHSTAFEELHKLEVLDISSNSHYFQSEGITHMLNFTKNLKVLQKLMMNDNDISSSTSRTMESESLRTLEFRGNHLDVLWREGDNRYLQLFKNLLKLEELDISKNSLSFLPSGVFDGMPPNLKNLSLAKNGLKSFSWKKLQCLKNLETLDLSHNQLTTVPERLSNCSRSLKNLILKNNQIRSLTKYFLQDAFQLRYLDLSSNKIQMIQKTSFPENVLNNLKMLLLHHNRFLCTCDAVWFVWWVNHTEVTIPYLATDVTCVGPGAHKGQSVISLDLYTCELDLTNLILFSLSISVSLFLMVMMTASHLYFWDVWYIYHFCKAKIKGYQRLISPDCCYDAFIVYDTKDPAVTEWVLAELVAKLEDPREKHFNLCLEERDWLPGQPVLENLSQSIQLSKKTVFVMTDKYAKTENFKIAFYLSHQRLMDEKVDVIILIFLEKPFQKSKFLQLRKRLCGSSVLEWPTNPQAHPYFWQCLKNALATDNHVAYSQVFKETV
The assay can be described thus: Detection of TLR7 activation (HEK-Blue Detection), SEAP reporter. Conditions: HEK-Blue hTLR7 cells, 6-16 hrs, absorbance 650 nm; read-out: TLR7(EC50/μM). Here is the method: HEK-Blue™hTLR7 cells (purchased from InvivoGen) in a logarithmic growth phase were taken, with a growth medium (Gibco, C11995500BT, Invivo Gen, ant-nr) discarded. The cells were gently rinsed twice by an appropriate amount of 37° C. PBS (Hyclone, SH30256.01), a rinsed PBS was discarded. Thereafter, the cells were added with 2-5 mL of 37° C. PBS, incubated for 1 to 2 minutes, and then scraped by a cell scraper and gently pipetted to be dispersed into a single cell suspension. A hemocytometer was adopted to count the cells and a cell concentration was calculated. After that, a HEK-Blue™ Detection solution (purchased from Invivo Gen) was adopted to adjust the cell concentration of the cell suspension to 2.5×10^4/180 μL per well for cell plating on a 96-well cell culture plate. The HEK-Blue™hTLR7 cells were stimulated according to the designed series of GY compound or drug concentrations (0.01 μM, 0.1 μM, 1 μM, 5 μM, 15 μM, and 30 μM), with 3 replicate wells for each concentration, and were incubated at 37° C., 5% carbon dioxide for 6-16 hrs. After the incubation, the absorbance value was read at 650 nm with a full-wavelength microplate reader (BioTek-Epoch), as listed in Table 2.
Relative induction=(average OD value of experimental group−average OD value of negative control group)/average OD value of negative control group.
Specific details for the above method may be referred to https: • //www.invivogen.com/hek-blue-htlr7; https://www.invivogen.com/sites/default/files/invivogen/products/files/hek_blue_htlr7_tds.pdf.

Assay [4] relates to human colon cancer HCT-116 cells. The assay is described as follows: CCK8 growth inhibition, HCT-116. The following applies: CCK8 method, read-out: IC50 of inhibitory activity on tumor cell growth, HCT-116.
The test system of a further assay is HEK293T cells. The assay can be described thus: CCK8 growth inhibition, HEK-293T. Conditions: Homo sapiens, CCK8 method, read-out: IC50 of inhibitory activity on cell growth, HEK-293T.
The next assay concerns black melanoma B16 cells. The assay can be described thus: CCK8 growth inhibition, B16. Conditions: Mus musculus, CCK8 method, read-out: IC50 of inhibitory activity on tumor cell growth, B16.
Another assay deals with LLC. The assay can be described thus: CCK8 growth inhibition, LLC. The following applies: Lewis lung carcinoma; CCK8 method; read-out: IC50 of inhibitory activity on tumor cell growth, LLC.

Turning to `CCCCOc1nc(N)c2nc(O)n(Cc3cn(CCOCCOCCOCCNC(=S)N4CCCC(n5nc(-c6ccc(Oc7ccccc7)cc6)c6c(N)ncnc65)C4)nn3)c2n1` (stereo not drawn) [GY112], the IC50 in assay [1] was found to be 14.6 µM; in assay [2], 1.45 µM; in assay [3], 8.73 µM; in assay [4] it was 15.7 µM; in the assay with HEK293T cells, 13.8 µM; with black melanoma B16 cells, 34.1 µM. The IC50 in the assay with LLC is 18.8 µM. Moreover, the EC50 at TLR7 turned out to be 2.65 µM.

On to `CCCCOc1nc(N)c2nc(O)n(Cc3cn(CCOCCOCCOCCNC(=S)Nc4cc(Nc5nccc(-c6cn(C)c7ccccc67)n5)c(OC)cc4N(C)CCN(C)C)nn3)c2n1` [GY127], for which the IC50 in assay [1] amounted to 17.8 µM; in assay [2], 17.3 µM; in assay [4] it was 20.8 µM; in the assay on HEK293T cells, 26 µM; in the assay on LLC, 15.3 µM. At TLR7, the EC50 was determined as 1.06 µM.

As to `CCCCOc1nc(N)c2nc(O)n(Cc3cn(CCCCN4CCN(CCCNC(=S)N5CCCC(n6nc(-c7ccc(Oc8ccccc8)cc7)c7c(N)ncnc76)C5)CC4)nn3)c2n1` (stereo not drawn) [GY161], the IC50 in assay [2] was determined as 0.78 µM; in assay [3] it was 11.8 µM; in the assay on black melanoma B16 cells, 11.7 µM. For the same compound, the EC50 on TLR7 amounted to 3.86 µM.

The term IC50 denotes the concentration needed to halve the response being measured.
